In publication PMC4631641 (The Journal of nutritional biochemistry, 2015):

target: T1, holocarboxylase synthetase (HLCS) (Homo sapiens, UniProt P50747); assay: gel-based p67 biotinylation assay with purified rHLCS, dose-response; type: biochemical
T1 sequence (P50747 1-726): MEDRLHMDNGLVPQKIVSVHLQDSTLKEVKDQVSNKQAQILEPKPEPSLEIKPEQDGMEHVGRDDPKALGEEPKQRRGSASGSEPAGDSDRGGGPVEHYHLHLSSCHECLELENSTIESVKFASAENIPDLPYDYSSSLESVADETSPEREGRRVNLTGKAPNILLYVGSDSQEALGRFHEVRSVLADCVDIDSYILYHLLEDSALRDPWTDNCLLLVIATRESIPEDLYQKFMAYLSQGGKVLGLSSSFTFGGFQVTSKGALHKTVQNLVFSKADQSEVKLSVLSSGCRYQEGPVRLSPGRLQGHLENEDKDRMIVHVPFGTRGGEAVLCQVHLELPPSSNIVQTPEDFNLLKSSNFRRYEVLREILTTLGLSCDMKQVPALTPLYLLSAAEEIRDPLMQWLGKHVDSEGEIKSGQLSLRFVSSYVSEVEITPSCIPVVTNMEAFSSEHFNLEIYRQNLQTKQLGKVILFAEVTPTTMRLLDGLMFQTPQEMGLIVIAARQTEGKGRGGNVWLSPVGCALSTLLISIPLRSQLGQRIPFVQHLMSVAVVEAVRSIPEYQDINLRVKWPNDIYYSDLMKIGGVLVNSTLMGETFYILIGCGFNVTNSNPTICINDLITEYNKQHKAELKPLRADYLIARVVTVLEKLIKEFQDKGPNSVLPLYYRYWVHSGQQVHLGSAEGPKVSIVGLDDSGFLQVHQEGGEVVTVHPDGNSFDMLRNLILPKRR

| Compound | IC50 |
| --- | --- |
| Oc1cc(O)cc(/C=C/c2ccc(O)c(O)c2)c1 [Piceatannol] | 0.28 µM |
| Oc1ccc(/C=C/c2cc(O)cc(O)c2)cc1 [Resveratrol] | 3.7 ± 0.0085 µM |
| OC[C@H]1O[C@@H](Oc2cc(O)cc(/C=C/c3ccc(O)cc3)c2)[C@H](O)[C@@H](O)[C@@H]1O [Piceid] | 21.3 ± 0.014 µM |
